The experiment deals with P. methanolica cells (strain CBS6515, UV-mutagenized). The experiment in a line: Nystatin enrichment for auxotrophic mutants; titering of colony forming units versus control cells. The following applies: 1 mg nystatin added to remainder (about 450 ml) of 500 ml culture in minimal broth with 5 g/L ammonium sulfate, one additional hour with shaking, versus untreated control cells.

Molecules are shown by their SMILES.

Method: Large-scale mutagenesis was then carried out using a 2-second UV exposure to provide about 20% killing. Cells were plated at approximately 10^4 cells/plate onto eight YEPD plates that were supplemented with 100 mg/L each of uracil, adenine, and leucine, which were added to supplement the growth of potential auxotrophs having the cognate deficiencies. Following UV exposure the plates were wrapped in foil and incubated overnight at 30° C. The following day the colonies on the plates (~10^5 total) were resuspended in water and washed once with water. An amount of cell suspension sufficient to give an OD600 of 0.1-0.2 was used to inoculate 500 ml of minimal broth made with yeast nitrogen base without amino acids or ammonia, supplemented with 1% glucose and 400 μg/L biotin. The culture was placed in a 2.8 L baffled Bell flask and shaken vigorously overnight at 30° C. The following day the cells had reached an OD600 of ~1.0-2.0. The cells were pelleted and resuspended in 500 ml of minimal broth supplemented with 5 g/L ammonium sulfate. The cell suspension was placed in a 2.8 L baffled Bell flask and shaken vigorously at 30° C. for 6 hours. […] The cultures were incubated with shaking for an additional hour. The control and nystatin-treated cells were then harvested by centrifugation and washed with water three times. […]

With `C[C@@H]1[C@H](O)[C@@H](C)/C=C/C=C/CC/C=C/C=C/C=C/C=C/C(O[C@H]2O[C@H](C)[C@@H](O)[C@H](N)[C@@H]2O)CC2O[C@](O)(CC(O)C(O)CCC(O)CC(O)CC(O)CC(=O)O[C@H]1C)CC(O)C2C(=O)O` (stereo partly shown) [nystatin], the “decrease in the number of viable cells (colony forming units), factor” value was 10^4.

The values above are taken from US5955349A, “Compositions and methods for producing heterologous polypeptides in Pichia methanolica” (ZymoGenetics, Inc., priority 1996, dated 1999).
